Holding throughout (assay type): functional
One experiment relates to Acinetobacter baumannii. Put plainly: Antibacterial activity against Acinetobacter baumannii assessed as inhibition of bacterial growth incubated for 18 hrs by two fold broth microdilution assay.
For a further experiment, the system named is Enterococcus faecalis. The experiment is described as follows: Antibacterial activity against Enterococcus faecalis assessed as inhibition of bacterial growth incubated for 18 hrs by two fold broth microdilution assay. A general note: In broth dilution the organism is exposed to a series of concentrations in liquid medium.
Experiment [1] relates to Staphylococcus aureus. Put plainly: Antibacterial activity against Staphylococcus aureus ATCC 25923 assessed as inhibition of bacterial growth incubated for 18 hrs by two fold broth microdilution assay.
For the next experiment, the system named is Klebsiella pneumoniae. The experiment is described as follows: Antibacterial activity against Klebsiella pneumoniae assessed as inhibition of bacterial growth incubated for 18 hrs by two fold broth microdilution assay.
In experiment [2] the test system is Pseudomonas aeruginosa. The experiment is described as follows: Antibacterial activity against Pseudomonas aeruginosa ATCC 27853 assessed as inhibition of bacterial growth incubated for 18 hrs by two fold broth microdilution assay.
The test system of experiment [3] is Staphylococcus aureus. The experiment is described as follows: Antibacterial activity against Staphylococcus aureus ATCC 29213 assessed as inhibition of bacterial growth incubated for 18 hrs by two fold broth microdilution assay.
Experiment [4] deals with Staphylococcus aureus. Put plainly: Antibacterial activity against Staphylococcus aureus assessed as inhibition of bacterial growth incubated for 18 hrs by two fold broth microdilution assay.
Experiment [5] deals with Escherichia coli. Put plainly: Antibacterial activity against Escherichia coli ATCC 25922 assessed as inhibition of bacterial growth incubated for 18 hrs by two fold broth microdilution assay.
Experiment [6] relates to Escherichia coli. Put plainly: Antibacterial activity against Escherichia coli assessed as inhibition of bacterial growth incubated for 18 hrs by two fold broth microdilution assay.
Experiment [7] has as its system Staphylococcus aureus. The experiment is described as follows: Antibacterial activity against methicilin-resistant Staphylococcus aureus N315 assessed as inhibition of bacterial growth incubated for 18 hrs by two fold broth microdilution assay.
Experiment [8] relates to Pseudomonas aeruginosa. The experiment is described as follows: Antibacterial activity against Pseudomonas aeruginosa assessed as inhibition of bacterial growth incubated for 18 hrs by two fold broth microdilution assay.

Values after ≈ are worked out from the molar mass of the structure shown.

As usually defined, the MIC is the smallest concentration in the dilution series that meets the test's criterion for growth inhibition. Regarding `N#C/C(=C\c1cn(Cc2ccc(F)cc2F)c2ccccc12)S(=O)(=O)c1ccc(N)cc1`, the MIC with Acinetobacter baumannii amounted to 16 µg/mL (≈ 35.6 µM); with Enterococcus faecalis, 256 µg/mL (≈ 570 µM); in the experiment with Staphylococcus aureus [1], 64 µg/mL (≈ 142 µM); with Klebsiella pneumoniae, 4 µg/mL (≈ 8.9 µM); with Pseudomonas aeruginosa [2] it was 64 µg/mL (≈ 142 µM); in the experiment with Staphylococcus aureus [3] it was 8 µg/mL (≈ 17.8 µM). The MIC in the experiment on Staphylococcus aureus [4] amounted to 32 µg/mL (≈ 71.2 µM); with Escherichia coli [5] it was 64 µg/mL (≈ 142 µM); in the experiment with Escherichia coli [6], 256 µg/mL (≈ 570 µM); in the experiment on Staphylococcus aureus [7], 256 µg/mL (≈ 570 µM); in the experiment with Pseudomonas aeruginosa [8], 64 µg/mL (≈ 142 µM).

In the case of `CC(=O)Nc1ccc(S(=O)(=O)/C(C#N)=C/c2cn(CC(=O)N3CCCC3)c3ccccc23)cc1`, the MIC is 64 µg/mL (≈ 134 µM) with Acinetobacter baumannii; 128 µg/mL (≈ 269 µM) with Enterococcus faecalis; 128 µg/mL (≈ 269 µM) in the experiment with Staphylococcus aureus [1]; 64 µg/mL (≈ 134 µM) in the experiment on Klebsiella pneumoniae; 128 µg/mL (≈ 269 µM) in the experiment on Pseudomonas aeruginosa [2]; 16 µg/mL (≈ 33.6 µM) in the experiment on Staphylococcus aureus [3]. The minimal inhibitory concentration (MIC) in the experiment with Staphylococcus aureus [4] was 128 µg/mL (≈ 269 µM); in the experiment on Escherichia coli [5] it was 128 µg/mL (≈ 269 µM); with Escherichia coli [6] it was 64 µg/mL (≈ 134 µM); with Staphylococcus aureus [7], 256 µg/mL (≈ 537 µM); in the experiment on Pseudomonas aeruginosa [8], 64 µg/mL (≈ 134 µM).

Turning to `Cn1cc(/C=C(\C#N)S(=O)(=O)c2ccc(N)cc2)c2ccccc21`, the minimal inhibitory concentration (MIC) was determined as 2 µg/mL (≈ 5.93 µM) in the experiment on Acinetobacter baumannii; 256 µg/mL (≈ 759 µM) with Enterococcus faecalis; 128 µg/mL (≈ 379 µM) in the experiment with Staphylococcus aureus [1]; 4 µg/mL (≈ 11.9 µM) in the experiment with Klebsiella pneumoniae; 64 µg/mL (≈ 190 µM) with Pseudomonas aeruginosa [2]; 32 µg/mL (≈ 94.8 µM) in the experiment with Staphylococcus aureus [3]. Besides, the minimal inhibitory concentration (MIC) turned out to be 256 µg/mL (≈ 759 µM) in the experiment on Staphylococcus aureus [4]; 2 µg/mL (≈ 5.93 µM) in the experiment on Escherichia coli [5]; 64 µg/mL (≈ 190 µM) in the experiment on Escherichia coli [6]; 128 µg/mL (≈ 379 µM) in the experiment with Staphylococcus aureus [7]; 64 µg/mL (≈ 190 µM) with Pseudomonas aeruginosa [8].

In the case of `CC(=O)Nc1ccc(S(=O)(=O)/C(C#N)=C/c2c[nH]c3cccc(Cl)c23)cc1`, the minimal inhibitory concentration (MIC) is 16 µg/mL (≈ 40 µM) in the experiment with Acinetobacter baumannii; 32 µg/mL (≈ 80 µM) in the experiment with Enterococcus faecalis; 128 µg/mL (≈ 320 µM) in the experiment with Staphylococcus aureus [1]; 4 µg/mL (≈ 10 µM) with Klebsiella pneumoniae; 32 µg/mL (≈ 80 µM) in the experiment on Pseudomonas aeruginosa [2]; 32 µg/mL (≈ 80 µM) in the experiment with Staphylococcus aureus [3]. For the same compound, the minimal inhibitory concentration (MIC) in the experiment with Staphylococcus aureus [4] was 32 µg/mL (≈ 80 µM); in the experiment on Escherichia coli [5], 16 µg/mL (≈ 40 µM); with Escherichia coli [6], 128 µg/mL (≈ 320 µM); in the experiment on Staphylococcus aureus [7], 64 µg/mL (≈ 160 µM); in the experiment on Pseudomonas aeruginosa [8], 64 µg/mL (≈ 160 µM).

Consider `CC(=O)Nc1ccc(S(=O)(=O)/C(C#N)=C/c2cn(Cc3cccc(Cl)c3)c3ccccc23)cc1`, for which the MIC with Acinetobacter baumannii worked out at 64 µg/mL (≈ 131 µM); in the experiment on Enterococcus faecalis it was 256 µg/mL (≈ 522 µM); with Staphylococcus aureus [1], 128 µg/mL (≈ 261 µM); in the experiment with Klebsiella pneumoniae it was 16 µg/mL (≈ 32.7 µM); in the experiment on Pseudomonas aeruginosa [2], 64 µg/mL (≈ 131 µM); in the experiment with Staphylococcus aureus [3], 8 µg/mL (≈ 16.3 µM). In addition, the MIC came to 64 µg/mL (≈ 131 µM) in the experiment with Staphylococcus aureus [4]; 4 µg/mL (≈ 8.16 µM) in the experiment with Escherichia coli [5]; 128 µg/mL (≈ 261 µM) in the experiment on Escherichia coli [6]; 128 µg/mL (≈ 261 µM) in the experiment with Staphylococcus aureus [7]; 64 µg/mL (≈ 131 µM) in the experiment on Pseudomonas aeruginosa [8].

In the case of `CC(=O)Nc1ccc(S(=O)(=O)/C(C#N)=C/c2c[nH]c3c(C)cccc23)cc1`, the minimum inhibitory concentration (MIC) stood at 16 µg/mL (≈ 42.2 µM) in the experiment with Acinetobacter baumannii; 32 µg/mL (≈ 84.3 µM) in the experiment on Enterococcus faecalis; 128 µg/mL (≈ 337 µM) in the experiment on Staphylococcus aureus [1]; 4 µg/mL (≈ 10.5 µM) with Klebsiella pneumoniae; 64 µg/mL (≈ 169 µM) in the experiment on Pseudomonas aeruginosa [2]; 32 µg/mL (≈ 84.3 µM) in the experiment on Staphylococcus aureus [3]. The minimum inhibitory concentration (MIC) in the experiment on Staphylococcus aureus [4] was 32 µg/mL (≈ 84.3 µM); in the experiment on Escherichia coli [5] it was 4 µg/mL (≈ 10.5 µM); in the experiment on Escherichia coli [6], 4 µg/mL (≈ 10.5 µM); in the experiment with Staphylococcus aureus [7], 64 µg/mL (≈ 169 µM); with Pseudomonas aeruginosa [8] it was 64 µg/mL (≈ 169 µM).

Regarding `N#C/C(=C\c1cn(Cc2ccc(Cl)c(Cl)c2)c2ccccc12)S(=O)(=O)c1ccc(N)cc1`, the minimal inhibitory concentration (MIC) in the experiment with Acinetobacter baumannii worked out at 4 µg/mL (≈ 8.29 µM); in the experiment on Enterococcus faecalis, 128 µg/mL (≈ 265 µM); with Staphylococcus aureus [1], 16 µg/mL (≈ 33.2 µM); in the experiment with Klebsiella pneumoniae it was 4 µg/mL (≈ 8.29 µM); in the experiment on Pseudomonas aeruginosa [2] it was 64 µg/mL (≈ 133 µM); in the experiment on Staphylococcus aureus [3], 4 µg/mL (≈ 8.29 µM). For the same compound, the minimum inhibitory concentration (MIC) in the experiment on Staphylococcus aureus [4] worked out at 128 µg/mL (≈ 265 µM); in the experiment on Escherichia coli [5], 0.5 µg/mL (≈ 1.04 µM); with Escherichia coli [6], 256 µg/mL (≈ 531 µM); in the experiment on Staphylococcus aureus [7] it was 16 µg/mL (≈ 33.2 µM); with Pseudomonas aeruginosa [8] it was 31 µg/mL (≈ 64.3 µM).

Consider `CC(=O)Nc1ccc(S(=O)(=O)/C(C#N)=C/c2cn(CC(=O)N3CCCCC3)c3ccccc23)cc1`, for which the minimum inhibitory concentration (MIC) in the experiment with Acinetobacter baumannii was 64 µg/mL (≈ 130 µM); with Enterococcus faecalis, 128 µg/mL (≈ 261 µM); in the experiment with Staphylococcus aureus [1] it was 2 µg/mL (≈ 4.08 µM); in the experiment with Klebsiella pneumoniae, 64 µg/mL (≈ 130 µM); in the experiment on Pseudomonas aeruginosa [2], 256 µg/mL (≈ 522 µM); in the experiment on Staphylococcus aureus [3], 128 µg/mL (≈ 261 µM). For the same compound, the MIC in the experiment on Staphylococcus aureus [4] was determined as 256 µg/mL (≈ 522 µM); in the experiment with Escherichia coli [5] it was 256 µg/mL (≈ 522 µM); with Escherichia coli [6], 128 µg/mL (≈ 261 µM); with Staphylococcus aureus [7] it was 128 µg/mL (≈ 261 µM); in the experiment with Pseudomonas aeruginosa [8], 8 µg/mL (≈ 16.3 µM).

With `CCOC(=O)Cn1cc(/C=C(\C#N)S(=O)(=O)c2ccc(NC(C)=O)cc2)c2ccccc21`, the minimal inhibitory concentration (MIC) in the experiment on Acinetobacter baumannii was 128 µg/mL (≈ 283 µM); in the experiment with Enterococcus faecalis it was 128 µg/mL (≈ 283 µM); in the experiment on Staphylococcus aureus [1] it was 64 µg/mL (≈ 142 µM); in the experiment on Klebsiella pneumoniae, 64 µg/mL (≈ 142 µM); in the experiment with Pseudomonas aeruginosa [2], 128 µg/mL (≈ 283 µM); in the experiment with Staphylococcus aureus [3] it was 16 µg/mL (≈ 35.4 µM). The MIC with Staphylococcus aureus [4] amounted to 128 µg/mL (≈ 283 µM); in the experiment with Escherichia coli [5], 256 µg/mL (≈ 567 µM); in the experiment with Escherichia coli [6], 32 µg/mL (≈ 70.9 µM); in the experiment with Staphylococcus aureus [7], 256 µg/mL (≈ 567 µM); with Pseudomonas aeruginosa [8], 8 µg/mL (≈ 17.7 µM).
